Patent US7534558B2, “In vitro diagnostic test for enterovirus infections” (Universite de Lille 2 Droit Et Sante, priority 2003, dated 2009)
Entries after “also recorded” stand apart in the source; their conditions may differ.

What was measured:
[1] = test system: anti-VP4 antibodies in plasmas or serums; assay: ELISA of plasmas/serums on wells coated with VP4 protein or VP4 peptides; format: binding, human; conditions: for OD in ELISA assay compared with the VP4 protein: 40 serums from patients and 40 controls; for Mean value of OD ratio (OD / OD of negative control), ELISA: diluted 1/50, antigen coated at 5 μg/ml, 490 nm
Protocol: 40 plasmas from non diabetic patients and 40 plasmas or serums from diabetic patients were assayed.
The VP4 protein or the 5 VP4 peptides, diluted at 5 μg/ml in PBS buffer pH=7.4, are coated in the wells of a microplate of 96 wells (FluoroMunc, MaxiSorp surface, NUNC, Danemark) at the rate of 100 μl/well. The plates are incubated for 1 hour at 37° C. under humid atmosphere, then left for 24 h at room temperature. After 3 washings with PBS buffer, the wells are saturated with 300 μl of saturation buffer for 1 hour at 37° C. under humid atmosphere, before washing 3 times with the washing buffer. Then 250 μl of post-coating buffer are added to each well and the plates are incubated for 24 h at room temperature, then stored at 4° C. until use.
The wells coated with the VP4 protein or the different peptides VP4 are washed 3 times with washing buffer in order to remove the post-coating solution. Then 100 μl of the plasmas or serums diluted to 1/50th in dilution buffer are added to different wells and the plates are incubated for 1 hour at 37° C. under humid atmosphere. Simultaneously, a negative control well containing 100 μl of dilution buffer is carried out. Then the wells are washed 3 times with the washing solution and 100 μl of secondary antibody solution are added to each well. After incubation for 1 h at 37° C. under humid atmosphere, the wells are washed 5 times with the washing solution and 100 μl of substrate solution are added to each well. The plates are incubated for 30 minutes at room temperature and in the dark. The coloured reaction is stopped by addition of 25 μl of H2SO4 2M (1M) per well and the plates are read in a plate reader at a wavelength of 490 nm.
ODs obtained for each serum with the VP4 protein and the different peptides VP4 were divided by the OD obtained with the negative control. The following Tables show the mean +/− standard deviation of the rates of OD obtained with the two series of assayed serums (Patient=diabetic patients, Control=not diabetic). (see FIGS. 8 à 10)

[2] = test system: CVB4E2/plasma induced IFNα production by PBMCs; assay: CVB4E2/plasma induced IFNα production by PBMCs (DELFIA); format: cell-based, human
Protocol: (§1) VP4, H antigen or mock proteins were preincubated for 1 h at 37° C. at different concentrations with plasma from 5 healthy subjects diluted at optimal dilution (1/10 or 1/100 ). CVB3 or CVB4 were then added for 1 hour before incubating with PBMCs. […] On the contrary, the mock proteins isolated from non-infected Hep-2 cells have non effect on the IFNα production.
PBMCs separated from whole heparinated blood are distributed into microwells (plate of 96 wells), at the rate of 5 to 8.10^5 cell in 100 μl of supplemented RPMI medium by well. The infection of PBMC is made with a final volume of 100 μl of preparation in each well. After incubation for 48 h at 37° C. under a 5% CO2 atmosphere and 90% humidity, the supernatant is harvested and used immediately for IFNα dosage, or clarified by centrifugation for 10 minutes at 180×g and stored at −80° C. until dosage of the produced IFNα.
(§2) The concentration of the produced IFNα is determined with a sensitive and specific technique, the DELFIA method (Dissociation Enhanced Lanthanide FluoroImmmoAssay) (Rönnblom and al 1997).
The dosage of IFNα is performed following the DELFIA principle (Dissociation Enhanced Lanthanide FluoroImmunoAssay), based on a immunofluorescence in retarded phase method using antibodies binding IFNα of which one is labelled with europium. The use of an activation solution will release the europium conjugated with antibodies and emit a fluorescence proportional to the amount of produced IFNα and measured with a fluorometer (fluorometer LKB Wallac 1230 ARCOSO®, Turku, Finlande).
Monoclonal anti-IFNα antibodies LT 273 (5.4 mg/ml) and LT 293 (4.8 mg/ml) supplied by Dr Gunar Alm (Uppsala, Sweden) are coated to the bottom of the wells after an incubation for 12 hours at room temperature. These plates can be stored in a buffer at 4° C. or are used immediately. Standard samples of human IFNα are prepared with an “irrelevant” monoclonal mouse antibody IgG1 in order to establish the reference curve (10 measurements). The other samples to be analysed are added to each well (100 μl) with the dilution buffer and the “irrelevant” antibodies and incubated for 2 hours with gentle stirring at room temperature. The wells are washed 3 times with the washing solution. The antibody conjugated to europium (200 μl) is added to each well, left to incubate for 1 hour at room temperature with gentle stirring. The plate is washed 6 times with a washing solution. The activation solution (200 μl), added immediately after washing and left for 20 to 30 minutes for incubation in the well, causes a cleavage of the europium bound to the antibody fixed to IFNα, emitting a fluorescence measured with the fluorescence reader (LKB Wallac 1230 ARCUS®). The IFNα concentration will be calculated from the values of the measured fluorescence by means of the Graphpad program (San Diego, USA). The detection threshold of IFNα is of 0.5 IU/ml.
The plasma from a healthy donor (optimal dilution 1/10th or 1/100th) is pre-incubated for 1 hour at 37° C. with the recombinant VP4 protein of CVB4E2 (optimal concentration at 1 μg/ml). The whole is incubated again for one hour at 37° C. in the presence of the CVB4E2 virus (dilutions at 1/10th or 1/100th; viral titer at 10^13 TCID50/ml) then applied to the PBMCs, (5.10^5/well) to incubate for 48 hours.
In the same way, the plasma preparation preincubated for 1 hour and VP4 of CVB3 are incubated for 1 hour with CVB4E2 before infecting the PBMCs for 48 hours and determinating the amount of the produced IFNα.
The virus (CVB4E2 or CVB3) infected PBMCs in the presence of plasma are deemed to be positive controls of this experimentation. The negative controls are obtained with one well of PBMC alone, one well of virus CVB4B2 alone and one well of CVB3 alone.
The CVB4E2 induced IFNα production in cultures of PBMCs previously incubated in the presence of plasma from healthy subjects was measured. […]

[3] = test system: CVB3/plasma induced IFNα production by PBMCs; assay: CVB3/plasma induced IFNα production by PBMCs (DELFIA); format: cell-based, human; conditions: protein preincubated 1 h at 37°C at different concentrations with plasma from healthy subjects, then CVB3, then PBMCs
Protocol: as §1
PBMCs separated from whole heparinated blood are distributed into microwells (plate of 96 wells), at the rate of 5 to 8.10^5 cell in 100 μl of supplemented RPMI medium by well. The infection of PBMC is made with a final volume of 100 μl of preparation in each well. […]
as §2
The dosage of IFNα is performed following the DELFIA principle (Dissociation Enhanced Lanthanide FluoroImmunoAssay), based on a immunofluorescence in retarded phase method using antibodies binding IFNα of which one is labelled with europium. The use of an activation solution will release the europium conjugated with antibodies and emit a fluorescence proportional to the amount of produced IFNα and measured with a fluorometer (fluorometer LKB Wallac 1230 ARCOSO®, Turku, Finlande). […]

[4] = Patient = 40 serums of diabetic patients
[5] = Control = 40 serums of non diabetic patients

| Molecule | OD in ELISA assay compared with the VP4 protein [1] | Mean value of OD ratio (OD / OD of negative control), ELISA [1, 4] | Mean value of OD ratio (OD / OD of negative control), ELISA [1, 5] | further results |
| --- | --- | --- | --- | --- |
| CSCC[C@H](N)C(=O)NCC(=O)N[C@@H](C)C(=O)N[C@@H](CCC(N)=O)C(=O)N[C@H](C(=O)N[C@@H](CO)C(=O)N[C@H](C(=O)N[C@@H](CCC(N)=O)C(=O)N[C@@H](CCCCN)C(=O)N[C@H](C(=O)NCC(=O)N[C@@H](C)C(=O)N[C@@H](Cc1c[nH]cn1)C(=O)N[C@@H](CCC(=O)O)C(=O)N[C@H](C(=O)N[C@@H](CO)C(=O)N[C@@H](CC(C)C)C(=O)N[C@@H](CO)C(=O)N[C@@H](C)C(=O)N[C@@H](CO)C(N)=O)[C@@H](C)O)[C@@H](C)O)[C@@H](C)O)C(C)C [VP4-P1] | comparable to the VP4 protein | 1.450 | – | – |
| CC[C@H](C)[C@H](NC(=O)[C@H](CC(N)=O)NC(=O)[C@@H](NC(=O)[C@H](Cc1ccc(O)cc1)NC(=O)[C@H](Cc1c[nH]cn1)NC(=O)[C@@H](NC(=O)[C@@H](NC(=O)[C@H](CO)NC(=O)[C@H](CC(N)=O)NC(=O)CNC(=O)[C@H](CO)NC(=O)[C@H](C)NC(=O)[C@H](CO)NC(=O)[C@H](CC(C)C)NC(=O)[C@H](CO)NC(=O)[C@@H](NC(=O)[C@H](CCC(=O)O)NC(=O)[C@H](Cc1c[nH]cn1)NC(=O)[C@H](C)NC(=O)CN)[C@@H](C)O)[C@@H](C)CC)[C@@H](C)CC)[C@@H](C)O)C(N)=O [VP4-P2] | comparable to the VP4 protein; also recorded: same behaviour as VP4; also recorded: recognizes a higher level of antibodies with diabetics as with non-diabetics | 2.373 | 0.691 | effect on IFNα production during infection of PBMCs with CVB4E2 in the presence of plasma ([2]; plasma 1/100th, peptide at three concentrations (FIG. 11, tracks 7 to 9)): diminution of the dose-dependent IFNα production; Mean value of OD ratio (OD / OD of negative control), ELISA ([1]; Patient = 40 serums of diabetic patients, listed as Peptide P2): 2.376 |
| CC[C@H](C)[C@H](NC(=O)[C@H](CC(N)=O)NC(=O)[C@@H](NC(=O)[C@H](Cc1ccc(O)cc1)NC(=O)[C@H](Cc1c[nH]cn1)NC(=O)[C@@H](NC(=O)[C@@H](NC(=O)[C@H](CO)NC(=O)[C@H](CC(N)=O)NC(=O)CN)[C@@H](C)CC)[C@@H](C)CC)[C@@H](C)O)C(=O)N[C@@H](CC(N)=O)C(=O)N[C@@H](Cc1ccc(O)cc1)C(=O)N[C@@H](Cc1ccc(O)cc1)C(=O)N[C@@H](CCCCN)C(=O)N[C@@H](CC(=O)O)C(=O)N[C@@H](C)C(=O)N[C@@H](C)C(=O)N[C@@H](CO)C(=O)N[C@@H](CC(N)=O)C(=O)N[C@@H](CO)C(N)=O [VP4-P3] | – | 0.712 | – | – |
| CC(C)[C@H](NC(=O)[C@H](CC(=O)O)NC(=O)[C@H](CCCCN)NC(=O)[C@@H](NC(=O)[C@@H]1CCCN1C(=O)[C@H](CCC(=O)O)NC(=O)[C@@H](NC(=O)[C@H](Cc1ccccc1)NC(=O)[C@H](CCCCN)NC(=O)[C@H](CO)NC(=O)[C@@H]1CCCN1C(=O)[C@H](CC(=O)O)NC(=O)[C@H](CCC(N)=O)NC(=O)[C@@H](NC(=O)[C@H](Cc1ccccc1)NC(=O)[C@H](CC(=O)O)NC(=O)[C@H](CCC(N)=O)NC(=O)[C@H](CCCNC(=N)N)NC(=O)[C@H](CC(N)=O)NC(=O)[C@H](C)NC(=O)[C@H](CO)NC(=O)[C@H](CC(N)=O)NC(=O)[C@H](CO)NC(=O)[C@H](C)NC(=O)[C@H](C)NC(=O)[C@H](CC(=O)O)NC(=O)[C@H](CCCCN)NC(=O)[C@H](Cc1ccc(O)cc1)NC(=O)[C@H](Cc1ccc(O)cc1)NC(=O)[C@@H](N)CC(N)=O)[C@@H](C)O)[C@@H](C)O)C(C)C)C(N)=O [VP4-P5] | – | 0.968 | – | – |
| H-SKFTEPVKDVMIKSLPALN-NH2 [VP4-P6, NH2-SKFTEPVKDVMIKSLPALN-CONH2] | – | 0.600 | – | – |
| VP4CVB4: natural structural internal protein VP4 dissociated and purified from coxsackievirus CVB4 E2 | – | 1.964 | 0.711 | effect on CVB3/plasma induced IFNα production [3]: no change; effect on CVB4/plasma induced IFNα production ([2]; protein preincubated 1 h at 37°C at different concentrations with plasma from healthy subjects, then CVB4, then PBMCs): Decrease |
